Earlier results, collected in the CATMoS acute toxicity set (Mansouri et al. 2021).

Test: rat acute oral toxicity
Settings: in vivo

Row | SMILES | LD50
1 | O=C(O)C(F)(F)C(F)(F)C(F)(F)C(F)(F)C(F)(F)C(F)(F)C(F)(F)C(F)F | 821 mg/kg
2 | O=C(O)C1=CCCN(CCOC(c2ccc(C(F)(F)F)cc2)c2ccc(C(F)(F)F)cc2)C1 | 894 mg/kg
3 | CCCCCC1CNC(C(=O)NC(C(C)Cl)C2OC(SC)C(O)C(O)C2O)C1 (centres undefined) | 1100 mg/kg
4 | Nc1cc(-c2ccncc2)c[nH]c1=O | 102 mg/kg
5 | CCCCCCOC(=O)CC#N | 6440 mg/kg
6 | C#CCSP(=O)(NC(=O)CC)OC (centres undefined) | 500 mg/kg
7 | CC=CC(=O)OCC | 3000 mg/kg
8 | O=S(=O)(NC(O)=NC1CCCCC1)c1ccc(Cl)cc1 | 1520 mg/kg
9 | CNC(=O)Oc1cccc2c1OCCO2 | 126 mg/kg
10 | O=C(O)CCCNS(=O)(=O)c1cccc(C(F)(F)F)c1 | 13000 mg/kg
11 | COc1cc2c(cc1OC)[C@@]13CCN4CC5=CCO[C@H]6CC(=O)N2[C@H]1[C@H]6[C@H]5C[C@H]43 | 1 mg/kg
12 | CC(=O)c1ccccc1[N+](=O)[O-] | 1600 mg/kg
13 | CCOC(=O)C1=CN(C(C)=O)C2CCCC(C)N2C1=O (centres undefined) | 2500 mg/kg
14 | O=C1CCc2cc(C(=O)CCCN3CC=C(c4ccccc4)CC3)ccc2N1 | 500 mg/kg
15 | COP(=S)(OC)SCn1nc(Br)ccc1=O | 3.75 mg/kg
16 | Clc1ccc2ocnc2c1 | 650 mg/kg
17 | O[C@@H](c1cc(C(F)(F)F)nc2c(C(F)(F)F)cccc12)[C@H]1CCCCN1 | 880 mg/kg
18 | O=S1(=O)CCCCO1 | 500 mg/kg
19 | CCOCCc1ccc(OCCN=c2[nH]cnc(CC)c2Cl)c(C)c1C | 115 mg/kg
20 | CCOC(=O)CCC(=O)OCC | 8530 mg/kg
21 | COC(=O)C(C(=O)Cc1c(C)n(C(=O)c2ccc(Cl)cc2)c2ccc(OC)cc12)C(=O)OC | 208 mg/kg
22 | O=S(=O)(c1ccccc1)c1ccccc1 | 300 mg/kg
23 | Cc1cc(O)ccc1[N+](=O)[O-] | 1200 mg/kg

Row | SMILES | LD50
24 | Cc1c(I)c(=O)n(-c2ccccc2)n1C | 2060 mg/kg
25 | C1CN1c1nc(N2CC2)nc(N2CC2)n1 | 13 mg/kg
26 | Nc1ncnc2c1ncn2[C@@H]1O[C@H](COP(=O)(O)O)[C@@H](O)[C@H]1O | 11200 mg/kg
27 | Cc1c(C(=O)NCCO)[n+]([O-])c2ccccc2[n+]1[O-] | 1720 mg/kg
28 | Cc1cc(N)ccc1S(=O)(=O)NCCO | 8900 mg/kg
29 | O=[N+]([O-])C=C1SCCN1Cc1ccccc1 | 1000 mg/kg
30 | CC(Cl)(Cl)Cl | 9600 mg/kg
31 | CN(CCN(C)N=O)N=O | 125 mg/kg
32 | CCCCC(CC)COC(=O)C(CC)CCCC (centres undefined) | 27000 mg/kg
33 | CCOC(=O)N(C)SN(C)C(=O)O/N=C(\C)SC | 226 mg/kg
34 | NCCC[Si]12OCCN(CCO1)CCO2 | 5800 mg/kg
35 | COC(=O)C=C1CCCC1 | 3360 mg/kg
36 | O=C1C=CC(=O)N1c1ccc(Cl)cc1 | 440 mg/kg
37 | CC(C(=O)O)c1cccc2c(-c3ccccc3)coc12 (centres undefined) | 950 mg/kg
38 | COc1ccc(CCNC[C@H](O)c2ccc(O)cc2)cc1OC | 9370 mg/kg
39 | C=C(C)CC#N | 540 mg/kg
40 | FC(F)(F)c1ccc(Cl)cc1Cl | 2150 mg/kg
41 | CNC(=O)ON=C1SCSC1C (centres undefined) | 0.88 mg/kg
42 | Cc1ccccc1-n1c(CF)nc2ccc(N)cc2c1=O | 249 mg/kg
43 | CC(C)(C)C(=O)CCc1ccc(Cl)cc1 | 3140 mg/kg
44 | COC(CN1CCN(CCC(O)c2ccccc2)CC1)c1ccccc1 (centres undefined) | 640 mg/kg
45 | Nc1ccc(O)c2c1C(=O)c1c(N)c(Br)cc(O)c1C2=O | 12500 mg/kg
46 | CCCCOC(=O)CC(C)=O | 11300 mg/kg

Row | SMILES | LD50
47 | Cc1ccc(N2C(=O)C=CC2=O)cc1N1C(=O)C=CC1=O | 2400 mg/kg
48 | ClCCO[SiH](OCCCl)OCCCl | 190 mg/kg
49 | N#CCCC1CN2CCc3cc4c(cc3C2CC1=O)OCO4 (centres undefined) | 1410 mg/kg
50 | COC1(C)CC(c2ccccc2)c2c(c3ccccc3oc2=O)O1 (centres undefined) | 4000 mg/kg
51 | CC(CCC(=O)O)C(=O)O (centres undefined) | 300 mg/kg
52 | CC(C)(C)NCC(O)COc1cccc2c1C[C@H](O)[C@H](O)C2 (some centres undefined) | 5300 mg/kg
53 | O=C(O)Cc1ccc(-c2ccccc2F)cc1 | 638 mg/kg
54 | CCC1(CC)C(=O)C=CN(CN2CCOCC2)C1=O | 1950 mg/kg
55 | O=C/C=C/O | 824 mg/kg
56 | Cc1ccc2c(c1)CC(=O)c1cc(C(C)C(=O)O)ccc1O2 (centres undefined) | 147 mg/kg
57 | CNC(=O)N(C)N=O | 280 mg/kg
58 | CCOP(=S)(OCC)SCn1nc(-c2ccccc2)ccc1=O | 555 mg/kg
59 | COc1ccc(N)cc1OC | 681 mg/kg
60 | CN(C)C(=S)c1ccc2c(c1)OCO2 | 79 mg/kg
61 | CCOC(=S)c1ccc2c(c1)OCO2 | 1160 mg/kg
62 | C=CCC1=C(C)C(OC(=O)C2C(C)(C)C2(C)C)CC1=O (centres undefined) | 174 mg/kg
63 | COc1c(OC)c(Cl)c2[nH]c(C(F)(F)F)nc2c1Cl | 100 mg/kg
64 | CN1CCC(=C2c3ccccc3CCc3sccc32)CC1 | 410 mg/kg
65 | COc1ccc(SP(=S)(CCl)OC(C)C)cc1 (centres undefined) | 108 mg/kg
66 | CN(CCCO)CCC(c1ccccc1)c1ccccc1 | 1400 mg/kg
67 | CN(C)c1ccc(N=Nc2cccc(C(=O)O)c2)cc1 | 3760 mg/kg
68 | Cc1cccc2c1C(=O)C(c1c(Cl)cccc1Cl)C2=O (centres undefined) | 466 mg/kg
69 | CCOC(=O)[N-]c1c[n+](N2CCOCC2)no1 | 1050 mg/kg
